In ChEMBL document CHEMBL6109056, “Disrupted target binding with acryloyl group as potential Bcr-Abl/C-Src dual kinase inhibitor optimization strategies with maintained antitumor activity” (Bioorg Med Chem Lett, 2025):

How the values were obtained:
[1] = system: K562; assay: Cytotoxicity against human K562 cells assessed as growth inhibition incubated for 72 hrs by MTT assay; format: functional, cell-based; settings: K562, 72 h
[2] = system: A549; assay: Cytotoxicity against human A549 cells assessed as growth inhibition incubated for 72 hrs by MTT assay; format: functional, cell-based; settings: A549, 72 h
[3] = target: Bcr/Abl fusion protein (Homo sapiens, UniProt P00519); assay: Inhibition of wild-type Bcr-Abl (unknown origin) in presence of ATP; format: protein assay
Bcr/Abl fusion protein, sequence (P00519 whole entry, the tested form may be a part): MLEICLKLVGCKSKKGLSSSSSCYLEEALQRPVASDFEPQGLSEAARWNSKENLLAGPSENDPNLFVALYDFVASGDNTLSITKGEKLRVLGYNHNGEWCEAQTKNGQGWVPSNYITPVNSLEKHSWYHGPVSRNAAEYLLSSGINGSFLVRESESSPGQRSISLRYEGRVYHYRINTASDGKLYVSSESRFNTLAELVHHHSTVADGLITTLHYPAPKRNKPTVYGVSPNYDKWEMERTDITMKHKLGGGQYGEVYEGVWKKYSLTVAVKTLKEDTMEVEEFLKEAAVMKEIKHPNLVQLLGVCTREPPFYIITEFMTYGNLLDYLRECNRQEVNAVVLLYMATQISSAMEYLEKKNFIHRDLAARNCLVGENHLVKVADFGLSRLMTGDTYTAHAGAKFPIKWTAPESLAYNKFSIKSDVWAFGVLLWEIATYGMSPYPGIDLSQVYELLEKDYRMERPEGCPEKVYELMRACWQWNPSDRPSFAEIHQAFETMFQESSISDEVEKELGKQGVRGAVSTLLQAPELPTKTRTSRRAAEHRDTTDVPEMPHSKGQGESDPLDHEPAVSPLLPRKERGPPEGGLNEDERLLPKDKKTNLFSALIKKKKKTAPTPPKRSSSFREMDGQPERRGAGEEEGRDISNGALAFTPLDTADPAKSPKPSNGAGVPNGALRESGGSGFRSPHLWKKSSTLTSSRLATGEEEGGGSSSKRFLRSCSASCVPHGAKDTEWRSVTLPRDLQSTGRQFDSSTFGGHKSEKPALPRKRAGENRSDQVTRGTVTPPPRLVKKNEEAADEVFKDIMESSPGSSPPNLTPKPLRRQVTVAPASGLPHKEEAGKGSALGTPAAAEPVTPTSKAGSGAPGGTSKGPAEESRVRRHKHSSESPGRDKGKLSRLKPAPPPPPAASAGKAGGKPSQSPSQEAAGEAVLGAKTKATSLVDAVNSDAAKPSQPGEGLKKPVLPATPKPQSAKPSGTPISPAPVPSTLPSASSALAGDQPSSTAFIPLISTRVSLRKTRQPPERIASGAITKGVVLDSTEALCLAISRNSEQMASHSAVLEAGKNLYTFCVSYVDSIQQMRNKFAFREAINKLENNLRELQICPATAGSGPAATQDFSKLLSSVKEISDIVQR
Bcr/Abl fusion protein, sequence (P11274 whole entry, further chain, the tested form may be a part): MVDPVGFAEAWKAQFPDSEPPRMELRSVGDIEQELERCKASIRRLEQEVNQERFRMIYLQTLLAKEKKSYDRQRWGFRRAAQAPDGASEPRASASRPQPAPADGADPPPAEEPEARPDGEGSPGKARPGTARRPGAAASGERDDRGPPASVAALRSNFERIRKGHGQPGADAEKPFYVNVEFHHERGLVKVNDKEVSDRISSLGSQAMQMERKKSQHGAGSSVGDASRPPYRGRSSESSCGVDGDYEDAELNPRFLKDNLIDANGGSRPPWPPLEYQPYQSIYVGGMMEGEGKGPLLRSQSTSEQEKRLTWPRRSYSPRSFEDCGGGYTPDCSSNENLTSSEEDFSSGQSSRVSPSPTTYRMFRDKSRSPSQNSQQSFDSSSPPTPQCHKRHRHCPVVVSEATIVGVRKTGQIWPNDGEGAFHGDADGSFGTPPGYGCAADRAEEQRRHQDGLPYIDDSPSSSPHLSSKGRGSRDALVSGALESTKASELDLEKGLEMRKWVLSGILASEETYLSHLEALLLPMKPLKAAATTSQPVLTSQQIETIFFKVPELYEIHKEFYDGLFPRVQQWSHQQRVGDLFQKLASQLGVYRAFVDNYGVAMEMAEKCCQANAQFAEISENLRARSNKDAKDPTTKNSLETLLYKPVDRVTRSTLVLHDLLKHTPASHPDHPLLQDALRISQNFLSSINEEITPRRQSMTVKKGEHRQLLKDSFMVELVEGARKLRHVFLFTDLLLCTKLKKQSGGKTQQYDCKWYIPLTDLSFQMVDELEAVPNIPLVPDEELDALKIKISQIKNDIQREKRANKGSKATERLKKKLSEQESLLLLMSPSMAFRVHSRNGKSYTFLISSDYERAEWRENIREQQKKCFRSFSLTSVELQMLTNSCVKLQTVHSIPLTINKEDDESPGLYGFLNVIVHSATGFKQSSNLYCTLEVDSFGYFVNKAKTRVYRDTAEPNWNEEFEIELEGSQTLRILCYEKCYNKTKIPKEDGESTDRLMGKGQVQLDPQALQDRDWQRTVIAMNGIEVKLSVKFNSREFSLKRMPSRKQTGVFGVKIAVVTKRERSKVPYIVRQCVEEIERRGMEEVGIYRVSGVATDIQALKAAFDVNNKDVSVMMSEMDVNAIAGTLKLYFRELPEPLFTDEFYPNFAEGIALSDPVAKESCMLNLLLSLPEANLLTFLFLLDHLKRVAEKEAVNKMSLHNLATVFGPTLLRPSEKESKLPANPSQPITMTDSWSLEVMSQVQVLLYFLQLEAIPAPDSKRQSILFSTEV

[4] = system: MCF7; assay: Cytotoxicity against human MCF7 cells assessed as growth inhibition incubated for 72 hrs by MTT assay; format: functional, cell-based; settings: MCF7, 72 h
[5] = Inhibition of C-Src (unknown origin) in presence of ATP; design: species or system Homo sapiens
[6] = species: Homo sapiens; assay: Inhibition of C-Src (unknown origin) at 10 uM in presence of ATP relative to control
[7] = target: Bcr/Abl fusion protein (Homo sapiens) (UniProt P00519+P11274); assay: Inhibition of wild-type Bcr-Abl (unknown origin) at 10 uM in presence of ATP relative to control; format: protein assay
Bcr/Abl fusion protein (Homo sapiens), sequence (P00519 whole entry, looked up, the tested form may be a part): as the sequence (P00519 whole entry, the tested form may be a part) above
Bcr/Abl fusion protein (Homo sapiens), sequence (P11274 whole entry, looked up, the tested form may be a part): as the sequence (P11274 whole entry, further chain, the tested form may be a part) above

[8] = system: HCT-116; assay: Cytotoxicity against human HCT-116 cells assessed as growth inhibition incubated for 72 hrs by MTT assay; format: functional, cell-based; settings: HCT-116, 72 h
[9] = system: HCT-116; assay: Cytotoxicity against human HCT-116 cells assessed as growth inhibition at 10 uM incubated for 72 hrs by MTT assay relative to control; format: functional
[10] = system: K562; assay: Cytotoxicity against human K562 cells assessed as growth inhibition at 10 uM incubated for 72 hrs by MTT assay relative to control; format: functional
[11] = system: MCF7; assay: Cytotoxicity against human MCF7 cells assessed as growth inhibition at 10 uM incubated for 72 hrs by MTT assay relative to control; format: functional
[12] = system: A549; assay: Cytotoxicity against human A549 cells assessed as growth inhibition at 10 uM incubated for 72 hrs by MTT assay relative to control; format: functional

Row | SMILES | EC50 [1] [nM] | EC50 [2] [nM] | IC50 [3] [nM] | IC50 [5] [nM] | also measured
1 | C=CC(=O)N(c1cc(OC)c(Cl)cc1Cl)c1c(C#N)cnc2cc(OCCCN3CCOCC3)c(OC)cc12 | 6390 | 4170 | 169 | 110 | EC50 [4]: 7850 nM
2 | C=CC(=O)N(c1cc(OC)ccc1Cl)c1c(C#N)cnc2cc(OCCCN3CCCCC3)c(OC)cc12 | 9760 | 8900 | 112 | 132 | EC50 [4]: 9450 nM
3 | COc1cc2ncc(C#N)c(Nc3ccc(Cl)cc3Cl)c2cc1OC |  |  | 4.38 | 4.67 | 
4 | C=CC(=O)N(c1ccc(Br)cc1Br)c1c(C#N)cnc2cc(OC)c(OC)cc12 |  |  | > 10000 | 8520 | 
5 | COc1ccc(Cl)c(Nc2c(C#N)cnc3cc(OCCCN4CCOCC4)c(OC)cc23)c1 | 1190 | 7150 | 0.23 | 0.33 | EC50 [4]: 9340 nM
6 | COc1cc2ncc(C#N)c(Nc3ccccc3)c2cc1OC |  |  |  |  | inhibition [6]: 96.5%; inhibition [7]: 98.7%
7 | COc1cc(Nc2c(C#N)cnc3cc(OCCCN4CCN(C)CC4)c(OC)cc23)c(Cl)cc1Cl [BOSUTINIB] | 690 | 970 |  | 0.14 | EC50 [8]: 3420 nM
8 | C=CC(=O)N(c1cc(OC)c(Cl)cc1Cl)c1c(C#N)cnc2cc(OC)c(OC)cc12 |  |  | 893 | 863 | 
9 | C=CC(=O)N(c1ccccc1)c1c(C#N)cnc2cc(OC)c(OC)cc12 |  |  |  |  | inhibition [6]: 9.5%; inhibition [7]: 7.1%
10 | C=CC(=O)N(c1cc(OC)c(Cl)cc1Cl)c1c(C#N)cnc2cc(OCCCN3CCN(C)CC3)c(OC)cc12 | 1060 | 1440 | 56.2 | 101 | EC50 [8]: 4860 nM
11 | COc1cc(N(C(C)=O)c2c(C#N)cnc3cc(OCCCN4CCCCC4)c(OC)cc23)c(Cl)cc1Cl |  |  | 1100 | 770 | inhibition at 10 µM [9]: 34%; inhibition at 10 µM [10]: 31%; inhibition at 10 µM [11]: 34%; inhibition at 10 µM [12]: 28%
12 | C=CC(=O)N(c1cc(OC)c(Cl)cc1Cl)c1c(C#N)cnc2cc(OCCCN3CCCCC3)c(OC)cc12 | 3190 | 5500 | 214 | 169 | EC50 [8]: 6380 nM
13 | COc1cc(Nc2c(C#N)cnc3cc(OCCCN4CCOCC4)c(OC)cc23)c(Cl)cc1Cl | 6430 | 7400 | 0.42 | 0.27 | EC50 [4]: 8670 nM
14 | C=CC(=O)N(c1ccc(Cl)cc1Cl)c1c(C#N)cnc2cc(OC)c(OC)cc12 |  |  | 1330 | 2080 | 
15 | C=CC(=O)N(c1cc(OC)ccc1Cl)c1c(C#N)cnc2cc(OCCCN3CCN(C)CC3)c(OC)cc12 | 9830 |  | 186 | 484 | inhibition at 10 µM [11]: 40%; inhibition at 10 µM [12]: 32%
16 | C=CC(=O)N(c1cc(OC)ccc1Cl)c1c(C#N)cnc2cc(OC)c(OC)cc12 |  |  | 569 | 1840 | 
17 | COc1cc(Nc2c(C#N)cnc3cc(OC)c(OC)cc23)c(Cl)cc1Cl |  |  | 0.76 | 0.77 | 
18 | COc1cc(Nc2c(C#N)cnc3cc(OCCCN4CCCCC4)c(OC)cc23)c(Cl)cc1Cl | 7330 | 8560 | 0.14 | 0.11 | EC50 [8]: 7990 nM
19 | COc1ccc(Cl)c(Nc2c(C#N)cnc3cc(OCCCN4CCCCC4)c(OC)cc23)c1 | 8070 | 7870 | 0.3 | 0.35 | inhibition at 10 µM [11]: 29%
20 | COc1cc2ncc(C#N)c(Nc3ccc(Br)cc3Br)c2cc1OC |  |  | 5430 | 2440 | 
21 | C=CC(=O)N(c1cc(OC)ccc1Cl)c1c(C#N)cnc2cc(OCCCN3CCOCC3)c(OC)cc12 |  |  | 193 | 207 | inhibition at 10 µM [10]: 40%; inhibition at 10 µM [11]: 25%; inhibition at 10 µM [12]: 31%
22 | COc1ccc(Cl)c(Nc2c(C#N)cnc3cc(OC)c(OC)cc23)c1 |  |  | 0.64 | 0.89 | 
23 | COc1ccc(Cl)c(Nc2c(C#N)cnc3cc(OCCCN4CCN(C)CC4)c(OC)cc23)c1 |  | 4510 | 0.06 | 0.23 | inhibition at 10 µM [10]: 46%; EC50 [4]: 4490 nM
